Where two headings read alike, the source gives them in different places.
Legend:
Bcr-Abl E255V = Bcr-Abl E255V (Homo sapiens, UniProt P00519, E255V)
Method: (§1) Ba/F3 cells were cultured for 2,5 hours without and in presence of inhibitor at the indicated concentrations. Cell lysis, SDS-PAGE and immunoblotting were done as described previously.^42 Anti-Abl antibodies were obtained from Pharmingen (8E9) (BD Biosciences, Heidelberg, Germany) and Calbiochem-Novabiochem (Ab3) (Schwalbach, Germany). Antibodies to phosphotyrosine were purchased from Upstate Biotechnology (4G10) (Biozol, Eching, Germany) and Transduction (PY20) (BD Biosciences, Heidelberg, Germany). Bands were visualized using the ECL system (Amersham, Braunschweig, Germany).

Bcr-Abl H396P = Bcr-Abl H396P (Homo sapiens, UniProt P00519, H396P)
Method: as §1

Bcr-Abl Y253H = Bcr-Abl Y253H (Homo sapiens, UniProt P00519, Y253H)
Method: as §1

Bcr-Abl E255K = Bcr-Abl E255K (Homo sapiens, UniProt P00519, E255K)
Method: as §1

[1] = test system: Ba/F3 cells expressing P loop mutant Y253H; experiment: MTS proliferation, Ba/F3 Bcr-Abl Y253H; assay type: cell-based
Method: (§2) Presence of single point mutations was verified by sequencing. […] Parental cells were cultured in presence of 2 ng/mL interleukin-3 (IL-3, R&D, Wiesbaden, Germany). IL-3 independent Ba/F3 cells expressing wild-type and mutant BCR-ABL were generated by electroporation and transformed upon withdrawal of IL-3. Expression of Bcr-Abl was confirmed by western blot and flow-cytometric analysis.
(§3) Proliferation was measured using a MTS tetrazolium-based method by absorption of formazam at 490 nm (CellTiter 96, Promega, Madison, Wis., USA). Measures were taken as triplicates after 24 and 48 hours of culture without and in the presence of inhibitor at the indicated concentrations.

Bcr-Abl wild-type = target: T1, Bcr-Abl wild-type (Homo sapiens, UniProt P00519); experiment: Bcr-Abl tyrosine phosphorylation in Ba/F3 cells, wild-type; assay type: cell-based
T1 construct: expressed in transfected cells; host or cells: Ba/F3 cells (electroporation, IL-3 independent); the other entry of the earlier key: BCR (P11274, Breakpoint cluster region protein)

[2] = test system: Ba/F3 cells expressing P loop mutant E255V; experiment: MTS proliferation, Ba/F3 Bcr-Abl E255V; assay type: cell-based
Method: as §2, §3

Bcr-Abl/T3151 = target: T2, Bcr-Abl/T3151 (Homo sapiens, UniProt P00519, T315I); experiment: Bcr-Abl tyrosine phosphorylation in Ba/F3 cells, T3151; assay type: cell-based
T2 construct: expressed in transfected cells; host or cells: Ba/F3 cells; the other entry of the earlier key: BCR (P11274, Breakpoint cluster region protein)

[3] = target: T3, Ba/F3 cells transformed with Bcr-Abl wild-type (Homo sapiens, UniProt P00519, cells depend on it, form not given); experiment: MTS proliferation, Ba/F3 Bcr-Abl wild-type; assay type: cell-based
T3 construct: fused on or other part: P11274 (Breakpoint cluster region protein)
Method: as §2, §3

parental Ba/F3 cells = experiment: MTS proliferation, parental Ba/F3 cells; assay type: cell-based; conditions: read-out: IC50, unspecific growth inhibition
Excerpt: […]. Lancet, 359: 487-491, 2002; incorporated herein by reference). Briefly, RT-PCR fragments derived from clinical samples were cloned into pBlueskript SK+ p185^bcr-abl (Stratagene, Amsterdam, NL), and subcloned into pcDNA3.1/Zeo (+) (Invitrogen, Leek, NL) and Mig EGFP (Bai, R. Y., Ouyang, T., Miething, C., Morris, S. W., Peschel, C., and Duyster, J. Nucleophosmin-anaplastic lymphoma kinase associated with anaplastic large-cell lymphoma activates the phosphatidylinositol 3-kinase/Akt antiapoptotic signaling pathway. Blood, 96: 4319-4327, 2000; incorporated herein by reference). Presence of single point mutations was verified by sequencing. Ba/F3 cells were maintained in RPMI 1640 growth media (Gibco, Karlsruhe, Germany) containing 10% fetal calf serum (Gibco) and P/S (Gibco) (200 U penicillin per mL and 200 μg streptomycin per mL). Parental cells were cultured in presence of 2 ng/mL interleukin-3 (IL-3, R&D, Wiesbaden, Germany). IL-3 independent Ba/F3 cells expressing wild-type and mutant BCR-ABL were generated by electroporation and transformed upon withdrawal of IL-3. Expression of Bcr-Abl was confirmed by western blot and flow-cytometric analysis.
Proliferation was measured using a MTS tetrazolium-based method by absorption of formazam at 490 nm (CellTiter 96, Promega, Madison, Wis., USA). […]

[4] = test system: Ba/F3 cells expressing P loop mutant E255K; experiment: MTS proliferation, Ba/F3 Bcr-Abl E255K; assay type: cell-based
Method: as §2, §3

[5] = Pharmacokinetics in B6D2F1 mice; assay type: in vivo; conditions: for Cmax / MRT / bioavailability: B6D2F1, mouse, plasma, 1 mg; for Cmax / MRT / AUG (uM × Min) IV / AUG (uM × Min) PO: one milligram; for bioavailability: po vs iv
Method: Solvents. […] SKI-DV281 was dissolved/suspended in a solution of 20% Cremophor +20% ethanol in saline.
Animal Experiments. For each compound, nineteen B6D2F1 mice were used. One mouse was used as control and the rest was divided into two groups with 9 mice per group. One milligram ([…] at 17 mg/ml) of compound was administered to the mice through oral gavage in one group and intravenously in the other group. At each time point (total of 9 time points) after the drug administration, one mouse from each group was sacrificed and approximately 400 μl of blood was collected into heparinized tubes through cardiac puncture. The plasma samples were analyzed as described below.
Analytical. The analysis of drug level in plasma is performed with an automated LC-MS system, which consists of a Prospekt-2 automated sample processor, interfaced with an Agilent 1100 LC-MS. The Prospekt-2 consists of two parts, high pressure eluter (HPE) and automated cartridge exchanger (ACE). The Agilent unit consists of a binary pump, an autosampler, the instrument will perform extraction and analysis automatically. The ACE picks up a new C, 18 solid phase […] (SPE) cartridge and places it into the clamp. The HPE activates the cartridge by passing acetonitrile and water through the cartridge. The autosampler picks up a predetermined amount of the plasma and the HPE flushes the plasma onto the SPE cartridge, washes it with water, then the sample is analyzed. When the cycle is completed, the ACE will fetch a new cartridge and cycle is repeated.
Data analysis and result. The pharmacokinetic curve for each compound was plotted intravenous versus oral (iv vs. po) (see FIGS. 27-29). Data analysis was performed with WinNonlin v.4 (Pharsight) using non-compartmental model.

[6] = target: T4, Ba/F3 cells transformed with Bcr-Abl wild-type (Homo sapiens, UniProt P00519); experiment: MTS proliferation, Ba/F3 Bcr-Abl wild-type; assay type: cell-based; conditions: for GI50: read-out: IC50, growth inhibition
T4 construct: other: von Bubnoff et al. 2002; other: 48 hours of culture; fused on or other part: P11274 (Breakpoint cluster region protein)
Method: as §2, §3

R10-Negative cells = experiment: CFSE cell division and viability; assay type: cell-based
Method: Using the vital stain, CFSE, it is possible to determine the concentrations of different inhibitors required to arrest cell division and also to quantitate the number of quiescent cells. […] However with exposure to ST1571 at the same concentration many cells continue dividing and 80% are still viable after 6 days; even at 100 nM ST1571, some cells are able to continue dividing and the viability is still 24% at 6 days.

CML cell lines = experiment: cells; conditions: read-out: IC50 on CML cell lines
normal progenitors = experiment: Inhibition of normal progenitors; assay type: cell-based, human
Excerpt: (§4) In many experiments the CD34+ blasts were further depleted of GM, megakaryocyte or lymphocyte progenitors (CD 13, 14, 15, 46, 61, 19-) or of erythroid and megakaryocyte progenitors (CD36-, Glycophorin-, CD41/61-) in order to study the drug's effects on purer erythroid or GM progenitors.

[7] = test system: R10 Negative and R10 Positive cells (M07e/p210bcr-abl); experiment: cells; conditions: M-07e
Solubility = assay type: physicochemical
[8] = test system: human glioblastoma, sarcoma, neuroblastoma and Ewing's sarcoma cell lines; experiment: cells; conditions: read-out: average IC50s
CML progenitors = experiment: cells; assay type: cell-based, human; conditions: for inhibition at 0.01 µM: read-out: average inhibition of CML GM progenitors, 10 nM
Excerpt: as §4

[9] = Serial plasma levels in mice (bioavailability); assay type: in vivo; conditions: mouse, oral, read-out: bioavailability after oral administration relative to intravenous or intraperitoneal injection
Excerpt: Toxicological and pharmacological studies in mice and dogs include determining the maximum tolerated doses, measuring plasma and tissue levels and bioavailability after oral and parenteral administration, and developing optimal formulations for both oral and parenteral use. […] One way to administer the drug is by continuous infusion, and we are currently exploring the use of small osmotic pumps that can be inserted into the peritoneal cavities of mice that will deliver a constant concentration continuously. All animal studies are performed under the standard guidelines. Initial dose escalation studies are performed via oral delivery on control mice in order to determine the maximum tolerated dose (MTD). Studies proceed at or below half-MTD. The inherent kinetics for disease engraftment of each model system and the appropriate windows for duration of drug administration are then determined. In the human mesothelioma xenograft model, tumor formation is evaluated, allowing for the establishment of 1-2 mm^3 tumors before drug administration. Survival data are presented using the Kaplan-Meyer method. We will compare the administration of the inhibitors by i.v. or i.p. bolus injection with continuous i.p. infusion using an osmotic pump.

[10] = intravenous, read-out: Cmax (uM) IV
[11] = intravenous, read-out: MRT (Min) IV (converted)
[12] = oral gavage, read-out: Cmax (uM) PO
[13] = oral gavage, read-out: MRT (Min) PO (converted)

Cc1cc(Nc2ncc3cc(-c4c(Cl)cccc4Cl)c(=O)n(C)c3n2)ccc1F [PD180970]
concentration of complete disappearance of phosphotyrosine Bcr-Abl (Bcr-Abl E255V): 2 µM
concentration of complete disappearance of phosphotyrosine Bcr-Abl (Bcr-Abl H396P): 250 nM
concentration of complete disappearance of phosphotyrosine Bcr-Abl (Bcr-Abl Y253H): 2 µM
concentration of complete disappearance of phosphotyrosine Bcr-Abl (Bcr-Abl E255K): 1 µM
cellular IC95 [1]: 770 nM
concentration of complete disappearance of phosphotyrosine Bcr-Abl (Bcr-Abl wild-type): 250 nM
cellular IC95 [2]: 935 nM
activity (autophosphorylation) of Bcr-Abl/T3151 (Bcr-Abl/T3151): did not impair
fold higher concentrations than the most active compounds [3]: 5 fold
IC50 (parental Ba/F3 cells): 830 nM

Cn1c(=O)c(-c2c(Cl)cccc2Cl)cc2cnc(Nc3cccc(N)c3)nc21 [SKI DV 2-43, 2-(3-Aminophenylamino)-6-(2,6-dichlorophenyl)-8-methyl-8H-pyrido[2,3-d]pyrimidin-7-one]
cellular IC95 [1]: 125 nM
cellular IC95 [4]: 110 nM
Cmax [5, 10]: 224 µM
MRT [5, 11]: 174 min
Cmax [5, 12]: 10 µM
MRT [5, 13]: 294 min
bioavailability [5]: 4%
AUG (uM × Min) IV ([5]; intravenous): 20319 µM·min
AUG (uM × Min) PO ([5]; oral gavage): 826 µM·min
cellular IC95 [2]: 200 nM
IC95, growth inhibition [6]: 40 nM
GI50 ([6]; ba/f3 cells transformed with bcr-abl wild-type): 9 nM

Cc1ccc(NC(=O)c2ccc(CN3CCN(C)CC3)cc2)cc1Nc1nccc(-c2cccnc2)n1 [STI-571]
viability at […] (R10-Negative cells; 144 h, 25 nM, after 6 days): 80%
viability at 0.1 µM (R10-Negative cells; 144 h, 100 nM, at 6 days): 24%

Cn1c(=O)c(-c2c(Cl)cccc2Cl)cc2cnc(Nc3ccc(NC(=O)CCCCCNC(=O)CCCC[C@@H]4SC[C@@H]5NC(=O)N[C@@H]54)cc3)nc21 [SKI DV 1-10 biotinyl, 2-{4-[6-(Biotinamido)hexanamido]phenylamino}-6-(2,6-dichlorophenyl)-8-methyl-8H-pyrido[2,3-d]pyrimidin-7-one]
IC95, growth inhibition ([6]; 48 hours of culture): 515 nM
GI50 ([6]; 48 hours of culture): 115 nM

CSc1cccc(Nc2ncc3cc(-c4c(Cl)cccc4Cl)c(=O)n(C)c3n2)c1 [PD173955]
IC50 (CML cell lines): 2 to 35 nM
effect on normal erythroid progenitors (normal progenitors; 10 nM): unaffected
inhibition of normal progenitors (normal progenitors; 10 nM, any of the cytokines singly or in combination): no inhibition
IC50 (normal progenitors; Homo sapiens): 350 nM
IC50 [7]: ~2 nM
solubility (Solubility): quite insoluble
cell division (CFSE) (R10-Negative cells; 25 nM, after one division by Day 2): subsequent divisions are blocked
IC50 [8]: 400 to 1000 nM
CML erythroid progenitors' exaggerated response to EPO alone or KL alone (CML progenitors; 10 nM): almost completely blocked
IC50 (CML progenitors; Homo sapiens, read-out: IC50 for CML progenitors, varies in different patients): 1.5 to 7.5 nM
inhibition at 0.01 µM (CML progenitors; Homo sapiens, G- + GM + KL): 34%
inhibition at 0.01 µM (CML progenitors; Homo sapiens, G- + GM-CSF at 0.03 ng/ml): 68%
inhibition at 0.01 µM (CML progenitors; Homo sapiens, G- + GM-CSF at 10 ng/ml): 61%
inhibition at 0.01 µM (CML progenitors; Homo sapiens, KL alone at 50-100 ng/ml): 83%
IC50 (CML progenitors; read-out: IC50 for CML progenitors, varies in different patients): ~2 nM

Cn1c(=O)c(-c2c(Cl)cccc2Cl)cc2cnc(Nc3cccc(CO)c3)nc21 [PD166326, 6-(2,6-Dichlorophenyl)-2-(3-hydroxymethylphenylamino)-8-methyl-8H-pyrido[2,3-d]pyrimidin-7-one]
bioavailability [9]: ~8%
Cmax [5, 10]: 90 µM
MRT [5, 11]: 103 min
Cmax [5, 12]: 3.2 µM
MRT [5, 13]: 126 min
bioavailability [5]: 6.6%
AUG (uM × Min) IV ([5]; intravenous): 2395 µM·min
AUG (uM × Min) PO ([5]; oral gavage): 158 µM·min

From patent US20050009849A1, “Pyridopyrimidine kinase inhibitors” (priority 2003, published 2005)
